The record followed here is patent US20240254119A1 (THIRD HARMONIC BIO, INC., priority 2022, published 2024).

Each structure is given as a SMILES string.

Data set [1] is described as follows: Three time point assay for plasma, brain and testes distribution after oral dosing. Type of data set: in vivo, rat. As to conditions: rat, oral dosing. The procedure: Exemplary compounds were tested for distribution in plasma, brain and testes tissue following oral dosing of the compounds in rats. Procedures and results are described below.
Male SD Rats were group-housed (up to four animals/sex/cage) in polysulfone cages with certified aspen wood bedding during acclimation and study period.
Certified rodent diet and water was provided to all animals ad libitum, unless fasting for study procedures.
Appropriate amount of test article was accurately weighed and mixed with an appropriate volume of vehicle to get a clear solution or a uniform suspension; vortexing or sonication in water bath may also be need. Animals were dosed within four hours after the formulation is prepared.
For PO dosing, the dose formulation was administered via oral gavage following facility SOPs. The dose volume was determined by the animals' body weight collected on the morning of dosing day. The dose was 10 mg/kg.
Each blood collection (about 1 mL per time point at one or more of 0.5 h, 2 h, 3 h, 5.3 h, and 7 h) was performed from jugular vein or other suitable site of each animal into pre-chilled commercial EDTA-K2 tubes and placed on wet ice until centrifugation.
Blood samples were processed for plasma by centrifugation at approximately 4° C., 3,200 g for 10 min. Plasma was collected respectively and transferred into pre-labeled 96 well plate or polypropylene tubes, quick frozen over dry ice and kept at −60° C. or lower until LC-MS/MS analysis.
Rat brain was perfused with PBS to remove blood before harvest.
After perfusion, brain and testis were homogenized using homogenizing buffer (15 mM PBS (pH7.4):MeOH=2:1) at the ratio of 1:9 (1 g tissue with 9 mL buffer, the dilution ratio is 10). The brain homogenate was kept at −60° C. or lower until LC-MS/MS analysis. General sample processing procedure (brain homogenate & testis homogenate) using 96-well plate: • 1). An aliquot of 40 μL unknown sample, calibration standard, quality control and dilution quality control (if have), single blank, and double blank sample was added to the 96-well plate respectively; • 2). Each sample (except the double blank) was quenched with 400 μL of IS1 respectively (double blank sample was quenched with 400 μL of I), and then the mixture was vortex-mixed for 10 min at 800 rpm and centrifuged for 15 min at 3220×g, 4° C.; • 3). An aliquot of 50 μL supernatant was transferred to another clean 96-well plate and centrifuged for 5 min at 3220×g, 4° C., then the supernatant was directly injected for LC-MS/MS analysis.
• 1. A LC-MS/MS method for the quantitative determination of test compound in biological matrix was developed under Non-GLP compliance. • 2. A calibration curve with at least 6 non-zero calibration standards was applied for the method including LLOQ. • 3. A set of QCs consisting of low, middle, and high concentrations were applied for the method. • 4. N in 1 cassette LC-MS/MS method was developed for samples coming from different studies and the interference among all cassette analytes was evaluated during the method development. • 5. Cassette administration assay was performed if the mass difference (Δmass) among different analytes was more than 4 Da. In this case, interference evaluation was not necessary.
• 1. If sample number within a batch was ≤12, at least one set of standard curve separated with two parts through begin and end of the sequence, was included in the run, and QCs were not required. The recommended injection order was C8, C6, C4, C2, study samples, C7, C5, C3, C1. • 2. If sample number within a batch was >12, one standard curve and two sets of QCs with low, middle and high concentrations were applied for bioanalysis. Meanwhile, QCs number should be more than 5% of study sample number. • 3. Samples with the same types of matrix in different studies were quantified in one analysis run by using the developed N in 1 cassette LC-MS/MS method. • 4. […]

Data set [2] concerns CYP3A4. The data set is described as follows: Hepatocyte CYP induction assay, CYP3A4 gene expression. It counts as in vitro ADME. Conditions: human hepatocytes. The procedure: Exemplary compounds were tested for ability to induce CYP3A4 and/or CYP1A2 in hepatocytes. Procedures and results are described below.
Cryopreserved human hepatocytes were purchased from BioIVT (Baltimore, MD, USA), and they were stored in liquid nitrogen before using. The detailed information of hepatocytes is as follows:
Fresh dosing solutions of test compounds, and Rifampicin were prepared in the incubation medium on the day of dosing.
Cryopreserved hepatocytes were thawed and counted to determine yield, viability was measured. Hepatocytes at the concentrations of 0.7 million/mL were transferred to collagen-coated 96-well plates for attachment (0.1 mL viable cells/well). After allowing 4 to 5 hours for attachment of cells, the plating medium was replaced with Incubation Medium containing 2% (v/v) Matrigel™ (sandwich medium) and the hepatocytes were incubated until use.
All incubations were conducted at 37° C., 5% CO2, and saturated humidity.
The sandwich medium was removed and the hepatocytes were treated with incubation solutions containing test articles in vehicle (0.1% DMSO), or positive control for 24 hours after the cultures were established. The incubation solution was aspirated and replaced with incubation solution containing the same concentrations of test articles, vehicle, or positive controls for an additional 24 hours. The total treatment period was 48 hours. Triplicate were used for each concentration of test compound and positive control.
After treatment period of 48 hours, the incubation solution was aspirated. Hepatocytes were washed once with pre-warmed HBSS and incubated with 140 μL of RLT (lysis buffer from Rneasy 96 Kit) supplemented with 1% β-mercaptoethanol. Plates were then stored at ≤−60° C. freezer until RNA analysis.
Before RNA extraction, the frozen plate was thawed and cell lysates were transferred to 96-well plates. RNA isolation was performed using QIAcube HT System. RNA concentration was measured with NanoDrop ND-2000 spectrophotometer. The purity of RNA preparation was calculated by the ratio of the OD260 nm/OD280 nm and the acceptable range is between 1.8 and 2.2. Reverse transcription was performed to obtain cDNA. Quantification of the selective genes by real time quantitative Polymerase Chain Reaction (qPCR) was performed with TaqMan universal PCR Master Mix on the BIO-RAD CFX 384 Touch Real Time PCR System. The following setting were used: 50° C. for 2 minutes, 95° C. for 10 minutes, 40 cycles of 95° C. for 15 seconds and 60° C. for 1 minute. 18S rRNA was used as the internal standard.
To account for variation in RNA yields and reverse transcription polymerase chain reaction (RT-PCR), the gene of interest in all samples was normalized to an internal control gene (18S ribosomal RNA) (Cttarget gene−Ct18S=ΔCt).
The relative quantitation or change in mRNA level of selected genes induced by each test compound was expressed in relation to the vehicle control sample (Δctcompound−ΔCtvehicle=ΔΔCt). Fold changes in gene expression were determined by taking 2 to the power of this value (2^−ΔΔt).
% of positive control [(fold change in treated sample)−1]/[(fold change in positive control)−1]×100

A short description of data set [3]: Kinetic solubility assay. It counts as physicochemical. As to conditions: for Solubility (μM): kinetic solubility, 50 mM PB (pH 7.4), shaken 24 hours at RT. A digest of the protocol: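 Concentration in the filtrate was determined by UPLC-UV or HPLC-UV with a standard curve. Before that, compound (10 mM DMSO stock) in 50 mM PB at pH 7.4 was agitated 24 h at room temperature, then PTFE-filtered with centrifugation.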

The target of data set [4] is T1, PDGFRα (Homo sapiens, UniProt P16234).
T1 construct: purchased Millipore 14-467 (lot 26321_ACTI)
T1 sequence (P16234 24-1089): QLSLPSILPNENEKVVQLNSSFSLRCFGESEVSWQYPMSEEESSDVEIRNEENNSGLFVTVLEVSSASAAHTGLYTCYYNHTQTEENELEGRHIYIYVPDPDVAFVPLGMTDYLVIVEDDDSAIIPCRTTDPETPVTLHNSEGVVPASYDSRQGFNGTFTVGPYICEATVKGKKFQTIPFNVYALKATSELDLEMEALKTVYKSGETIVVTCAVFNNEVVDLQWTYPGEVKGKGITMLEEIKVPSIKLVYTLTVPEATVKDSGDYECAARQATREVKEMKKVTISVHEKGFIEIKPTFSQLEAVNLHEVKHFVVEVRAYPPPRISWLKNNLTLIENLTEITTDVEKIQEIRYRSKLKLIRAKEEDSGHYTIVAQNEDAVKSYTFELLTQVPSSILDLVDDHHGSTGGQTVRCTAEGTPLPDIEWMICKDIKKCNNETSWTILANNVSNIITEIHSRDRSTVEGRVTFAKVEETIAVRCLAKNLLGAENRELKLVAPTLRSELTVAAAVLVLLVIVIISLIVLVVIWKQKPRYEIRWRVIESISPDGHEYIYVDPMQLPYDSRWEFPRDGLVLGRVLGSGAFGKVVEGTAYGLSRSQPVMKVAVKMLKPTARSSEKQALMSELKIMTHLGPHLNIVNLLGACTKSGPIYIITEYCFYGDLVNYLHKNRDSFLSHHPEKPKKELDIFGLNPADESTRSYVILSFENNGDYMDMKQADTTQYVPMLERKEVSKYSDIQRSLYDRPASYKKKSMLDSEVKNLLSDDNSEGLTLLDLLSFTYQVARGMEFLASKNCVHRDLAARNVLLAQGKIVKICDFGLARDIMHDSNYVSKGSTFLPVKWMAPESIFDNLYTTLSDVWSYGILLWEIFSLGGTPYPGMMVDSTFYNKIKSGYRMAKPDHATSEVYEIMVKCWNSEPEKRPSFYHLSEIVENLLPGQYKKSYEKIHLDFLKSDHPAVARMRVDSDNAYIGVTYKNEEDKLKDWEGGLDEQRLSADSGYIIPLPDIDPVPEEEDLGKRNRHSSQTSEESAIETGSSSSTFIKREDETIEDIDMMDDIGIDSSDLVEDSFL
Kind of data set: Caliper biochemical assay, PDGFRα. As to conditions: Table 6. A digest of the protocol:
(§1)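 Mobility-shift readout: after EDTA quench, fluorescent peptide and product are resolved electrophoretically on a LabChip and measured by fluorescence. Reactions contain enzyme, carboxyfluorescein peptide, ATP, Mn^2+ and compound, run 3 h at 25° C; 100% inhibition control lacks enzyme.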

Data set [5] concerns the target T2, wtKIT (Homo sapiens, UniProt P10721).
T2 construct: 1888289AM in the reaction mixtures
Kind of data set: Caliper biochemical assay, wtKIT. As to conditions: Table 6, read-out: KIT Biochemical IC50 avg. A digest of the protocol: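 Mobility-shift read-out: after EDTA stop, fluorescent peptide substrate and product resolved electrophoretically on LabChip 3000. Reaction ran 3 h at 25° C with 400 μM ATP, Mn^2+ cofactor, 5.0 nM wtKIT, 1 μM FAM-peptide, pH 7.5 HEPES buffer; no-enzyme wells defined full inhibition.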

The target in data set [6] is T3, CSF-1R (Homo sapiens, UniProt P07333).
T3 construct: purchased Invitrogen PV3249 (lot 662393N)
T3 sequence (P07333 20-972): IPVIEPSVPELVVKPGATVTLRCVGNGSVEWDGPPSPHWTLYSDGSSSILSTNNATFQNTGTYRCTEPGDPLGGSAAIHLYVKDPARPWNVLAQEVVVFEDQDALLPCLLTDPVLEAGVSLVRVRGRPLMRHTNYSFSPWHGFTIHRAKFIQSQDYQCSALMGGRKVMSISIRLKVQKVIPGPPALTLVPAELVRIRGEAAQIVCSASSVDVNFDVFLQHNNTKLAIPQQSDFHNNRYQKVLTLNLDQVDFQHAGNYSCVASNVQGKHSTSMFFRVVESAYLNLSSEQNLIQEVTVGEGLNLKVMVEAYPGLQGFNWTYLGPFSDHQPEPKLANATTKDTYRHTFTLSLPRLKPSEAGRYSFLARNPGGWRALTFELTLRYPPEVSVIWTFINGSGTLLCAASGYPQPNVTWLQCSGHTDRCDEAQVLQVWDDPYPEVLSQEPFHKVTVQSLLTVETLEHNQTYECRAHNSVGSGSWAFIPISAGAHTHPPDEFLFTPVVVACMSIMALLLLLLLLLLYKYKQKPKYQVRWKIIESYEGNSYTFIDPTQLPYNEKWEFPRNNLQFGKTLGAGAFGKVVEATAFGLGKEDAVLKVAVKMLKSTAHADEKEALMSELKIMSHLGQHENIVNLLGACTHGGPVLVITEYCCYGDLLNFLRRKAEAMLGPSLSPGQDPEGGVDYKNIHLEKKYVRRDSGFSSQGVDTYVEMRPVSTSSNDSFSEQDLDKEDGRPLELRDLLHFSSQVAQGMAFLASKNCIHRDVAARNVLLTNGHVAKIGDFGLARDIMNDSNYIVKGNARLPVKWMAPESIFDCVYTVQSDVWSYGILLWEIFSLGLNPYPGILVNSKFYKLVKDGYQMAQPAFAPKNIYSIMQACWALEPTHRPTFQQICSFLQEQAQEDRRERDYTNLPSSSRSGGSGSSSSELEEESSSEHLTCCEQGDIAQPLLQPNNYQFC
Kind of data set: Caliper biochemical assay, CSF-1R. Conditions: Table 6. A digest of the protocol:
as §1

T2 sequence (P10721 26-976): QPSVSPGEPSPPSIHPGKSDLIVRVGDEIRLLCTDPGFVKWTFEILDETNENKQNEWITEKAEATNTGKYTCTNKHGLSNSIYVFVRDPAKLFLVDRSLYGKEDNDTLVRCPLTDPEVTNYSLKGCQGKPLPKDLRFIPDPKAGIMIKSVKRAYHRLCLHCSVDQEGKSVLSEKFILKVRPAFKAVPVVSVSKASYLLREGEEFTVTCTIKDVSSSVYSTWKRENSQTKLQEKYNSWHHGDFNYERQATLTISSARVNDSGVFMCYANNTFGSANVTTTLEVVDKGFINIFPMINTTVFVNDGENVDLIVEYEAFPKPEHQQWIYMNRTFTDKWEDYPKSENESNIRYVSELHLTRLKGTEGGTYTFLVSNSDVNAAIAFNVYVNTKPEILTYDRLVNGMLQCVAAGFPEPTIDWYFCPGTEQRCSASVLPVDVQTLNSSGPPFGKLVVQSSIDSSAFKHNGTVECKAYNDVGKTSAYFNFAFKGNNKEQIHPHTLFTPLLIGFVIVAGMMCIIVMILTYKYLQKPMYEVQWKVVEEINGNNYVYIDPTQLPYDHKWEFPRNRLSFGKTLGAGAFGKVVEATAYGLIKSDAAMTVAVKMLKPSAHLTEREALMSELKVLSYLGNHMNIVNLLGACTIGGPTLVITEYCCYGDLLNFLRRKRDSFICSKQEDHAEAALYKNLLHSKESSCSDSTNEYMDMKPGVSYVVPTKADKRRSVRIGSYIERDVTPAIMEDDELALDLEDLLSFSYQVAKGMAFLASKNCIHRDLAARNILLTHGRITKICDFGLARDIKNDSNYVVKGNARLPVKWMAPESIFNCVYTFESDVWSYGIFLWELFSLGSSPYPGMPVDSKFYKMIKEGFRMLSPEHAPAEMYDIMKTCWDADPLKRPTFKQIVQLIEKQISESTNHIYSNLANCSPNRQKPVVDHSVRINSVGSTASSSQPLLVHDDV

As to `COc1ccn2c(C(=O)Nc3cc(-c4noc(CC(O)C(F)F)n4)ccc3C)cnc2c1` (single isomer, unassigned) [Compound I-40], in data set [1] (time point 0.5 h), the Brain concentration was 63.2 ng/g, the Kp brain/plasma is given as 0.09, the Kp testes/plasma is 0.17 and the Plasma concentration came out at 712 ng/mL. For the same compound, the Testes concentration in data set [1] (time point 0.5 h) is reported as 123 ng/g. In data set [1] (time point 2 h), this compound showed a Brain concentration of 144 ng/g, a Kp brain/plasma of 0.08, a Kp testes/plasma of 0.32 and a Plasma concentration of 1770 ng/mL. The compound also had a Testes concentration in data set [1] (time point 2 h) of 568 ng/g. In data set [1] (time point 7 h), this compound displayed a Brain concentration of 65.4 ng/g, a Kp brain/plasma of 0.09, a Kp testes/plasma of 0.41 and a Plasma concentration of 764 ng/mL. The Testes concentration in data set [1] (time point 7 h) was found to be 300 ng/g. In data set [2] (donor five), the “CYP 3A4 induction mRNA: Mean fold at 10 μM” value is “++ (induction fold of greater than 2-fold to less than or equal to 3-fold)”. For the same compound, the “CYP 3A4 induction mRNA: Mean fold at 10 μM” value in data set [2] (donor one) is “+++ (induction fold of greater than 3-fold to less than or equal to 10-fold)”. In data set [3], the “Solubility (μM)” value was “**** (a solubility less than or equal to 2 μM)”.
For `COc1ccn2c(C(=O)Nc3cc(-c4noc(C5COC5)n4)ccc3C)cnc2c1` [Compound I-51], the “CYP 3A4 induction mRNA: Mean fold at 10 μM” value in data set [2] (donor four) was “++ (induction fold of greater than 2-fold to less than or equal to 3-fold)”. In addition, the “Solubility (μM)” value in data set [3] is “**** (a solubility less than or equal to 2 μM)”.
The solubility is the dissolved amount per volume that the medium holds. Read a low solubility as little dissolved substance. As for `Cc1ccc(-c2noc(C3CC(F)(F)C3)n2)cc1NC(=O)c1cnc2ccccn12` [Compound A, reference compound], the “CYP 3A4 induction mRNA: Mean fold at 10 μM” value in data set [2] (donor two) is “+++ (induction fold of greater than 3-fold to less than or equal to 10-fold)”. Besides, the solubility at 24 h in data set [3] (phosphate buffer, pH 7.4, aqueous buffer, kinetic from dmso stock) was at most 2 µM.
What is called IC50 is the concentration at which inhibition is half-maximal. In the case of `CCc1nc(-c2ccc(C)c(NC(=O)c3cnc4ccccn34)c2)no1` [Compound I-283], the results for the IC50 in data set [4], in data set [5] and in data set [6] were 5000 to 30000 nM, at most 50 nM and at most 50 nM, respectively. Moreover, the “CYP 3A4 induction mRNA: Mean fold at 10 μM” value in data set [2] (donor two) is “++++ (induction fold of greater than 10-fold)”. Besides, the “Solubility (μM)” value in data set [3] was “** (a solubility greater than 10 μM and less than or equal to 50 μM)”.
Turning to `Cc1ccc(-c2noc([C@H]3C[C@@H]3F)n2)cc1NC(=O)c1cnc2cc(CC(F)(F)F)ccn12` [Compound I-45], the “CYP 3A4 induction mRNA: Mean fold at 10 μM” value in data set [2] (donor four) was “++ (induction fold of greater than 2-fold to less than or equal to 3-fold)”. Also, the “Solubility (μM)” value in data set [3] is recorded as “**** (a solubility less than or equal to 2 μM)”.
In the same order, the values of `Cc1ccc(-c2noc(CC(O)C(F)F)n2)cc1NC(=O)c1cnn2ccccc12` (single isomer, unassigned) [Compound I-39] are “++ (induction fold of greater than 2-fold to less than or equal to 3-fold)” and “**** (a solubility less than or equal to 2 μM)”.
